Source: US20140335050A1, “METHODS, COMPOSITIONS, AND KITS FOR THE TREATMENT OF CANCER” (The General Hospital Corporation, priority 2011, published 2014)
Entries after “also recorded” stand apart in the source; their conditions may differ.

Tests used:
Type in all cases: cell-based, human
U-87 MG glioma cell line = assay: Antibody staining and flow cytometry (intracellular gp100; surface MHC Class I)
Method: (§1) Cells were fixed with 1% formaldehyde, permeabilized with 0.1% saponin, stained with monoclonal antibodies to melanocyte antigens. Antibodies were obtained with specificity for: MART-1 from Vector Labs (Burlingame, Calif.); gp100 HMB45 from DakoCytomation (Carpinteria, Calif.) and then visualized with goat anti-mouse FITC-conjugated secondary antibody from Invitrogen (Fredrick, Md.). The level of EGFP was determined by flow cytometry of unfixed cells that were washed and resuspended in 1×PBS.
(§2) Cells were plated at a density of 1×10^5 in 1 ml of medium in a 24-well plate and cultured for varying times as indicated in results. […] After incubation, cells were collected by trypsinization and then evaluated by flow cytometry.
(§3) Intracellular staining and flow cytometric analyses of cytoplasmic Melan-A/MART-1, and gp100 expression were performed as described previously. Cells were fixed with 1% formaldehyde, permeabilized with 0.1% saponin, stained with monoclonal antibodies to melanocyte antigens. Antibodies were obtained with specificity for: Melan-A/MART-1 from Vector Labs (Burlingame, Calif.); gp100/HMB45 from DakoCytomation (Carpinteria, Calif.) and then visualized with goat anti-mouse FITC-conjugated secondary antibody from Invitrogen (Frederick, Md.). The level of EGFP was determined by flow cytometry of unfixed cells washed and resuspended in 1×PBS. Surface staining of MHC Class I was carried out using the antibody W6/32 on cells harvested with Cell Stripper from MediaTech Inc. (Manassas, Va.) and carried out on ice.

[1] = test system: MU89 MART::EGFP cell line; assay: Melan-A/MART-1 promoter-driven EGFP reporter, kinetics by flow cytometry; settings: MU89 MART::EGFP (FIG. 11)
[2] = test system: MALME-3M melanoma cell line; assay: Antibody staining and flow cytometry (intracellular Melan-A/MART-1, gp100, TRP-2; surface MHC Class I)
Method: as §1, §2, §3

A375 melanoma cell line = assay: as above
Method: as §1, §2, §3
(§4) Cell were seeded at 1×10^6 cells in a T25 flask with 10 ml of media for the 4 day IFN-beta pre-treatments. Cells were then harvested and plated in 24 well plate at 1×10^5 cells per well in 1 ml of media for 3 day treatments.
(§5) For surface staining of HLA Class I and II antigens, cells were harvested using CellStripper™ from Mediatech (Manassas, Va.). All staining steps were performed on ice. Following a first incubation with antibody to Class I (W6/32) or Class II (L243) for 30 minutes. Stained cells were washed twice with cold PBS and then stained with a goat anti-mouse FITC secondary antibody to allow for quantitative analysis by flow cytometry. For evaluation of cytoplasmic antigens, including Melan-A/MART-1 and gp100, cells were first fixed in paraformaldehyde and permeabilized with saponin as previously described. Staining for cytoplasmic antigens was carried out at room temperature (22° C.).

MUX melanoma cell line = assay: as above; settings: MUX
Method: as §1, §2, §3, §4, §5

MU89 melanoma cell line = assay: Antibody staining and flow cytometry (intracellular Melan-A/MART-1, gp100, TRP-2; surface MHC Class I/II)
[3] = test system: U-118 MG glioma cell line; assay: Antibody staining and flow cytometry (intracellular gp100; surface MHC Class I/II); settings: for Class I MHC, geometric mean of surface staining (W6/32): U-118
[4] = U-87 MG, 3 days, IFN-beta 5000 Units/ml, 17-AEP 0.5, PU-H71 0.3, CCT018159 5.0 μg/ml
[5] = MALME-3M, 3 days, IFN-beta 5000 Units/ml, 17-AEP 1.0, PU-H71 0.3, CCT018159 10.0 μg/ml
[6] = 3 days, IFN-beta 5000 Units/ml, 17-AEP 0.5, PU-H71 0.15, CCT018159 2.5 μg/ml
[7] = 3 days, IFN-beta 5000 Units/ml, 17-AEP 1.0, PU-H71 0.3, CCT018159 10.0 μg/ml
[8] = MU89, 3 days, IFN-beta 5000 Units/ml, 17-AEP 1.0, PU-H71 0.3, CCT018159 10.0 μg/ml
[9] = MU89, three days, IFN-β 5000 Units/ml, IFN-γ 100 ng/ml, PU-H71 0.3 mg/ml
[10] = MU89 cells, Table 20, single agent or simultaneous combination
[11] = U118 cells, Table 20, single agent or simultaneous combination

CC(C)NCCCn1c(Sc2cc3c(cc2I)OCO3)nc2c(N)ncnc21 [PU-H71]
Class I, geometric mean of surface staining (W6/32) (U-87 MG glioma cell line; [4]): 53
gp100, geometric mean of intracellular staining (U-87 MG glioma cell line; [4]): 66
MHC Class I, geometric mean of surface staining (W6/32) (U-87 MG glioma cell line; U-87 glioma, three days, IFN-β 5000 Units/ml, PU-H71 0.075-0.3): 71
Time at which the fluorescent reporter signal is significantly enhanced (as early as) [1]: 2 days
Class I, geometric mean of surface staining (W6/32) [2, 5]: 137
MART-1, geometric mean of intracellular staining [2, 5]: 226
TRP-2, geometric mean of intracellular staining [2, 5]: 279
gp100, geometric mean of intracellular staining [2, 5]: 511
MHC Class I, geometric mean of surface staining (W6/32) ([2]; MALME, three days, IFN-β 5000 Units/ml): 137
Class I, geometric mean of surface staining (W6/32) (A375 melanoma cell line; [6]): 71
MART-1, geometric mean of intracellular staining (A375 melanoma cell line; [6]): 11
TRP-2, geometric mean of intracellular staining (A375 melanoma cell line; [6]): 26
gp100, geometric mean of intracellular staining (A375 melanoma cell line; [6]): 24
MHC Class I, geometric mean of surface staining (W6/32) (A375 melanoma cell line; 4 day IFN-β pre-treatment (5000 Units/ml), then 3 days with fresh IFN-β and the labelled HSP90 inhibitor (label IFN-β: no inhibitor), 17-AEP 0.5, PU-H71 0.15, CCT018159 2.5): 226
MHC Class I, geometric mean of surface staining (W6/32) (A375 melanoma cell line; 4 day IFN-β pre-treatment (5000 Units/ml), then 3 days without IFN-β with the labelled HSP90 inhibitor (label IFN-β: no inhibitor), 17-AEP 0.5, PU-H71 0.15, CCT018159 2.5): 174
MHC Class I, geometric mean of surface staining (W6/32) (A375 melanoma cell line; single agent for 3 days, no IFN-β pre-treatment, IFN-β 5000 Units/ml, 17-AEP 0.5, PU-H71 […], CCT018159 2.5): 131
MHC Class I, geometric mean of surface staining (W6/32) (A375 melanoma cell line; three days, IFN-β 5000 Units/ml, 17-AEP 0.5, PU-H71 […], CCT018159 2.5): 71
Class I, geometric mean of surface staining (W6/32) (MUX melanoma cell line; [7]): 212
MART-1, geometric mean of intracellular staining (MUX melanoma cell line; [7]): 19
TRP-2, geometric mean of intracellular staining (MUX melanoma cell line; [7]): 41
gp100, geometric mean of intracellular staining (MUX melanoma cell line; [7]): 32
MHC Class I, geometric mean of surface staining (W6/32) (MUX melanoma cell line; 4 day IFN-β pre-treatment (5000 Units/ml), then 3 days with fresh IFN-β and the labelled HSP90 inhibitor (label IFN-β: no inhibitor), 17-AEP 1, PU-H71 0.3, CCT018159 10 mg/ml): 579
MHC Class I, geometric mean of surface staining (W6/32) (MUX melanoma cell line; 4 day IFN-β pre-treatment (5000 Units/ml), then 3 days without IFN-β with the labelled HSP90 inhibitor (label IFN-β: no inhibitor), 17-AEP 1, PU-H71 0.3, CCT018159 10 mg/ml): 477
MHC Class I, geometric mean of surface staining (W6/32) (MUX melanoma cell line; single agent for 3 days, no IFN-β pre-treatment, IFN-β 5000 Units/ml, 17-AEP 1 μg/ml, PU-H71 0.3 μg/ml, CCT018159 10 μg/ml): 282
MHC Class I, geometric mean of surface staining (W6/32) (MUX melanoma cell line; three days, IFN-β 5000 Units/ml, 17-AEP 1 μg/ml, PU-H71 0.3 μg/ml, CCT018159 10 μg/ml): 212
Class I, geometric mean of surface staining (W6/32) (MU89 melanoma cell line; [8]): 66
MART-1, geometric mean of intracellular staining (MU89 melanoma cell line; [8]): 147
TRP-2, geometric mean of intracellular staining (MU89 melanoma cell line; [8]): 214
gp100, geometric mean of intracellular staining (MU89 melanoma cell line; [8]): 381
MHC Class I, geometric mean of surface staining (W6/32) (MU89 melanoma cell line; MU89, 4 day IFN-β pre-treatment (5000 Units/ml), then 3 days with fresh IFN-β and the labelled HSP90 inhibitor (label IFN-β: no inhibitor), 17-AEP 1, PU-H71 0.3, CCT018159 10 mg/ml): 390
MHC Class I, geometric mean of surface staining (W6/32) (MU89 melanoma cell line; MU89, 4 day IFN-β pre-treatment (5000 Units/ml), then 3 days without IFN-β with the labelled HSP90 inhibitor (label IFN-β: no inhibitor), 17-AEP 1, PU-H71 0.3, CCT018159 10 mg/ml): 307
Class I antigen induction, sequential treatment (MU89 melanoma cell line; MU89, IFN-beta pre-treatment, then PU-H71 for 3 days (FIG. 22)): synergistically enhanced; also recorded: far exceeded what was achieved with either drug alone
Class II antigen level, sequential treatment (MU89 melanoma cell line; MU89, IFN-gamma for 3 days, subsequently PU-H71 (FIG. 23)): significantly greater than that achieved with IFN-gamma alone
MHC Class I, geometric mean of surface staining (W6/32) (MU89 melanoma cell line; MU89, single agent for 3 days, no IFN-β pre-treatment, IFN-β 5000 Units/ml): 75
MHC Class I, geometric mean of surface staining (W6/32) (MU89 melanoma cell line; MU89, three days, IFN-β 5000 Units/ml): 66
MHC Class I, geometric mean of surface staining (W6/32) (MU89 melanoma cell line; [9]): 99
MHC Class II, geometric mean of surface staining (L2443) (MU89 melanoma cell line; [9]): 43
L243 (MHC Class II surface staining) (MU89 melanoma cell line; [10]): 4.1
W6/32 (MHC Class I surface staining) (MU89 melanoma cell line; [10]): 72.1
L243 (MHC Class II surface staining) (MU89 melanoma cell line; MU89 cells, Table 21, no pre-treatment, treatment as labelled): 5
L243 (MHC Class II surface staining) (MU89 melanoma cell line; MU89 cells, Table 21, pre-treatment IFN-G (3 days), then treatment as labelled): 338
L243 (MHC Class II surface staining) (MU89 melanoma cell line; MU89 cells, Table 21, substance given as pre-treatment (3 days) only, no subsequent treatment): 2
Class II induction by IFN-gamma, combination (MU89 melanoma cell line; MU-89, Hsp90 inhibitor together with IFN-gamma): ablation of the IFN-gamma induction of Class II antigen
Class I expression, combination (MU89 melanoma cell line; MU-89, PU-H71 together with IFN-beta): additive effect
Class I induction by IFN-gamma, combination (MU89 melanoma cell line; MU-89, PU-H71 together with IFN-gamma): not further enhanced
L243 (MHC Class II surface staining) (MU89 melanoma cell line; MU-89, single agent): 4.5
MHC Class II, geometric mean of surface staining (L2443) ([3]; Giloma-118, three days, IFN-β 5000 Units/ml, IFN-γ 100 ng/ml, PU-H71 0.3 mg/ml): 4
MHC Class I, geometric mean of surface staining (W6/32) ([3]; Giloma-118, three days, IFN-β 5000 Units/ml, IFN-γ 100 ng/ml, PU-H71 0.3): 88
Class II induction, combination ([3]; U118, co-treatment with IFN-gamma and PU-H71): prevented
L243 (MHC Class II surface staining) ([3]; U118, single agent): 4.1
L243 (MHC Class II surface staining) [3, 11]: 6.3
W6/32 (MHC Class I surface staining) [3, 11]: 135.7
Class I MHC, geometric mean of surface staining (W6/32) ([3]; 4 day IFN-β pre-treatment (5000 Units/ml), then 3 days with fresh IFN-β, with PU-H71 0.3 where labelled (label IFN-β: no inhibitor)): 184
Class I MHC, geometric mean of surface staining (W6/32) ([3]; 4 day IFN-β pre-treatment (5000 Units/ml), then 3 days without IFN-β, with PU-H71 0.3 where labelled (label IFN-β: no inhibitor)): 224
Class I MHC, geometric mean of surface staining (W6/32) ([3]; single agent for 3 days, no IFN-β pre-treatment, IFN-β 5000 Units/ml, PU-H71 0.3): 138
gp100, geometric mean of intracellular staining ([3]; U-118 MG, 3 days, IFN-beta 5000 Units/ml, 17-AEP 1.0, PU-H71 0.3, CCT018159 10.0 μg/ml): 63
MHC Class I, geometric mean of surface staining (W6/32) ([3]; U-118 glioma, three days, IFN-β 5000 Units/ml, PU-H71 0.075-0.3): 88
